“And” between values parts separate entries of the source, which are not always exact repeats. Equal values may be shown once.
Assay: Stability of OSIM in rat plasma QC samples (bench-top, autosampler, freeze-thaw, long-term)
Format: in vitro ADME
Details: for B-LQC RE, AVERAGE / B-LQC measured concentration, AVERAGE / B-LQC RE / B-LQC measured concentration: nominal 5.02 ng/ml; for B-LQC RE, AVERAGE / B-LQC measured concentration, AVERAGE / B-MQC RE, AVERAGE / B-MQC measured concentration, AVERAGE / B-HQC RE, AVERAGE / B-HQC measured concentration, AVERAGE: average of 4; for B-LQC RE / B-LQC measured concentration / B-MQC RE / B-MQC measured concentration / B-HQC RE / B-HQC measured concentration: single replicates; for B-MQC RE, AVERAGE / B-MQC measured concentration, AVERAGE / B-MQC RE / B-MQC measured concentration: nominal 200.8 ng/ml; for B-HQC RE, AVERAGE / B-HQC measured concentration, AVERAGE / B-HQC RE / B-HQC measured concentration: nominal 401.6 ng/ml; for Relative stability: n=4
Description: Bench-top stability was tested by placing the pretreatment samples at room temperature ([…]) for 6 h, autosampler stability was assessed by placing the prepared sample in the injector for 24 h, freeze-thaw stability was determined to be adequate over at least three cycles (from −30 °C to 25 °C), and long-term stability was assessed to be at least one month before sample preparation (at −30 °C for 30 d). For all stability results, the average %RE of OSIM ranged from −11.04% to 7.48% across the three QC concentrations, with the %CV less than 6.42% (Table S4).

## C=CC(=O)Nc1cc(Nc2nccc(-c3cn(C)c4ccccc34)n2)c(OC)cc1N(C)CCN(C)C [OSIM, Osimertinib]
-30℃(30 day)
  B-LQC RE, AVERAGE: -11.04%
  B-LQC measured concentration, AVERAGE: 4.47 ng/mL
  B-LQC RE: -11.88% and -13.96% and -8.90% and -9.43%
  B-LQC measured concentration: 4.42 ng/mL and 4.32 ng/mL and 4.57 ng/mL and 4.55 ng/mL
  B-MQC RE, AVERAGE: -0.87%
  B-MQC measured concentration, AVERAGE: 199.05 ng/mL
  B-MQC RE: 4.20% and -2.59% and -1.56% and -3.53%
  B-MQC measured concentration: 209.23 ng/mL and 195.60 ng/mL and 197.67 ng/mL and 193.72 ng/mL
  B-HQC RE, AVERAGE: -1.09%
  B-HQC measured concentration, AVERAGE: 397.22 ng/mL
  B-HQC RE: -0.61% and 0.80% and -5.35%
  B-HQC measured concentration: 399.15 ng/mL and 404.80 ng/mL and 380.13 ng/mL
AUTO(24h)
  B-LQC RE, AVERAGE: -6.71%
  B-LQC measured concentration, AVERAGE: 4.68 ng/mL
  B-LQC RE: -12.78% and -6.93% and -1.98% and -5.16%
  B-LQC measured concentration: 4.38 ng/mL and 4.67 ng/mL and 4.92 ng/mL and 4.76 ng/mL
  B-MQC RE, AVERAGE: -1.60%
  B-MQC measured concentration, AVERAGE: 197.59 ng/mL
  B-MQC RE: -1.66% and 4.91% and -1.78% and -7.87%
  B-MQC measured concentration: 197.46 ng/mL and 210.66 ng/mL and 197.22 ng/mL and 184.99 ng/mL
  B-HQC RE, AVERAGE: -4.24%
  B-HQC measured concentration, AVERAGE: 384.55 ng/mL
  B-HQC RE: -2.81% and -5.55% and -7.95% and -0.66%
  B-HQC measured concentration: 390.30 ng/mL and 379.32 ng/mL and 369.66 ng/mL and 398.95 ng/mL
ROOM(6h)
  B-LQC RE, AVERAGE: 7.48%
  B-LQC measured concentration, AVERAGE: 5.40 ng/mL
  B-LQC RE: 11.63% and 8.45% and 4.43% and 5.39%
  B-LQC measured concentration: 5.60 ng/mL and 5.44 ng/mL and 5.24 ng/mL and 5.29 ng/mL
  B-MQC RE, AVERAGE: 5.16%
  B-MQC measured concentration, AVERAGE: 211.16 ng/mL
  B-MQC RE: 7.61% and 11.08% and 3.27% and -1.32%
  B-MQC measured concentration: 216.07 ng/mL and 223.04 ng/mL and 207.36 ng/mL and 198.15 ng/mL
  B-HQC RE, AVERAGE: -3.51%
  B-HQC measured concentration, AVERAGE: 387.49 ng/mL
  B-HQC RE: -6.10% and -7.91% and 2.69% and -2.75%
  B-HQC measured concentration: 377.12 ng/mL and 369.84 ng/mL and 412.42 ng/mL and 390.57 ng/mL
After RTF(-30℃30 day)
  B-LQC RE, AVERAGE: 6.03%
  B-LQC measured concentration, AVERAGE: 5.32 ng/mL
  B-LQC RE: -1.95% and 2.78% and 10.68% and 12.61%
  B-LQC measured concentration: 4.92 ng/mL and 5.16 ng/mL and 5.56 ng/mL and 5.65 ng/mL
  B-MQC RE, AVERAGE: -2.85%
  B-MQC measured concentration, AVERAGE: 195.09 ng/mL
  B-MQC RE: -3.40% and 0.97% and -3.10% and -5.85%
  B-MQC measured concentration: 193.98 ng/mL and 202.74 ng/mL and 194.57 ng/mL and 189.05 ng/mL
  B-HQC RE, AVERAGE: -9.46%
  B-HQC measured concentration, AVERAGE: 363.62 ng/mL
  B-HQC RE: -9.22% and -10.28% and -11.32% and -7.01%
  B-HQC measured concentration: 364.57 ng/mL and 360.31 ng/mL and 356.15 ng/mL and 373.44 ng/mL
Prepared sample in autosampler for 24 h, range over LQC/MQC/HQC
  Relative stability: 94.15-103.09%
Rat plasma, long-term at −30 °C for 30 days, range over LQC/MQC/HQC
  Relative stability: 88.96-98.91%
Rat plasma, room temperature for 6 h, range over LQC/MQC/HQC (5, 200, 400 ng/mL)
  Relative stability: 96.49-107.48%
Rat plasma, three freeze-thaw cycles (−30 °C to 25 °C), range over LQC/MQC/HQC
  Relative stability: 90.54-106.03%

— publication PMC10423561, “Effects of the CYP3A inhibitors, voriconazole, itraconazole, and fluconazole on the pharmacokinetics of osimertinib in rats” (PeerJ, 2023)
